# Test results as given in patent US20250163038A1, “CBL-B MODULATORS AND USES THEREOF” (Nimbus Clio, Inc., priority 2021, published 2025).
# Where two headings read alike, the source gives them in different places.
# Key:
# [1] = target: T1, Recombinant human c-Cbl (aa 47-435) (Homo sapiens, UniProt P22681); test: c-Cbl Biochemical Assay (TR-FRET)
# T1 sequence (P22681 47-435): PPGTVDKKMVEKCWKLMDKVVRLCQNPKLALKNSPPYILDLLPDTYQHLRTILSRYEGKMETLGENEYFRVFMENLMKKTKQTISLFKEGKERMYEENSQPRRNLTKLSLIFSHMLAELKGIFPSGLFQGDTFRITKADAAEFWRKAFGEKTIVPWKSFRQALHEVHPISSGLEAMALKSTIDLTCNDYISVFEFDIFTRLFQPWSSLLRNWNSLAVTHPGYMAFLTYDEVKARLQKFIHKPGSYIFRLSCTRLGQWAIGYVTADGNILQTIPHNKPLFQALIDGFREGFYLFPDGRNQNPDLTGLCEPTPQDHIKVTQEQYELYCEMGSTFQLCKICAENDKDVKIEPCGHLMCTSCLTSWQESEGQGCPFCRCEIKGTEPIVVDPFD
# [2] = target: Recombinant human Cbl-b (aa 36-427) (Homo sapiens, UniProt Q13191); test: Cbl-b Biochemical Assay (TR-FRET)
# [3] = system: Jurkat (clone E6-1) cells with NFAT luciferase reporter; test: Jurkat reporter assay (NFAT Luciferase); format: cell-based; details: Homo sapiens; Jurkat NFAT luciferase reporter cells, anti-CD3 stimulation, 6 hr; read-out: Jurkat NFAT EC50
# [4] = hc-Cbl Biochemical Assay (TR-FRET), read-out: TR-FRET hcCbl IC50
# Recombinant human Cbl-b (aa 36-427), sequence (Q13191 36-427): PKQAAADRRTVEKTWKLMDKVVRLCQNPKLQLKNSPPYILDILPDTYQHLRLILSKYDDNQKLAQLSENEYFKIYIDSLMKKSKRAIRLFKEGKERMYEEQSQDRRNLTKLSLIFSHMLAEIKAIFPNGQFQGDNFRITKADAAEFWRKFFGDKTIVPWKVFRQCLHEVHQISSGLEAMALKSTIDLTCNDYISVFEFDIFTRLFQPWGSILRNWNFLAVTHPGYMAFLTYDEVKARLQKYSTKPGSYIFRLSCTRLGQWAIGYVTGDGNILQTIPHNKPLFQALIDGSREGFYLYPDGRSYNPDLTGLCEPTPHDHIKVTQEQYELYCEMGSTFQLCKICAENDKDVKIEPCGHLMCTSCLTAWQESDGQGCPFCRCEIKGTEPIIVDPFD
Compound,"IC50 [1, 4] [nM]",IC50 ([2]; read-out: TR-FRET hCbl-b IC50) [nM],EC50 [3] [nM],IC50 [1] [nM],IC50 [2] [nM]
"Cn1cnnc1-c1cc(F)ccc1-c1cccc(-c2nc3cc(CNCC4(O)CCCC4)cc(C(F)(F)F)c3o2)c1 [AK-2, 1-((((2-(4′-Fluoro-2′-(4-methyl-4H-1,2,4-triazol-3-yl)-[1,1′-biphenyl]-3-yl)-7-(trifluoromethyl)benzo[d]oxazol-5-yl)methyl)amino)methyl)cyclopentan-1-ol, Acetate]",1000 to 10000,< 200,200 to 1000,–,–
"Cc1cc(CO)cc2nc(-c3cc(-c4ccc(F)cc4-c4nncn4C)cc(C4CC4)n3)oc12 [AET-1, (2-{6-Cyclopropyl-4-[4-fluoro-2-(4-methyl-1,2,4-triazol-3-yl)phenyl]pyridin-2-yl}-7-methyl-1,3-benzoxazol-5-yl)methanol]",1000 to 10000,200 to 1000,1000 to 10000,–,–
"Cc1cc(CN(C)[C@@H]2CCC[C@@H]2O)cc2nc(-c3cc(-c4ccc(F)cc4-c4nncn4C)cc(C4CC4)n3)oc12 [AFG-1, (1S,2R)-2-(((2-(6-Cyclopropyl-4-(4-fluoro-2-(4-methyl-4H-1,2,4-triazol-3-yl)phenyl)pyridin-2-yl)-7-methylbenzo[d]oxazol-5-yl)methyl)(methyl)amino)cyclopentan-1-ol]",–,–,< 200,< 200,< 200
"Cn1cnnc1-c1ccccc1-c1cccc(-c2nc3cc(CN[C@@H]4CCC[C@H]4O)cc(C(F)(F)F)c3o2)c1 [Example N-1, (1R,2R)-2-(((2-(2′-(4-Methyl-4H-1,2,4-triazol-3-yl)-[1,1′-biphenyl]-3-yl)-7-(trifluoromethyl)benzo[d]oxazol-5-yl)methyl)amino)cyclopentan-1-ol]",1000 to 10000,< 200,1000 to 10000,–,–
"COC(=O)c1ccc2oc(-c3cc(-c4ccc(F)cc4-c4nncn4C)cc(C4CC4)n3)nc2c1 [ADP-1, Methyl 2-{6-cyclopropyl-4-[4-fluoro-2-(4-methyl-1,2,4-triazol-3-yl)phenyl]pyridin-2-yl}-1,3-benzoxazole-5-carboxylate]",10000 to 50000,10000 to 50000,10000 to 50000,–,–
"COC(=O)c1cc(F)c2oc(-c3cc(-c4ccc(C#N)cc4-c4nncn4C)cc(C4CC4)n3)nc2c1 [AHC-1, methyl 2-{4-[4-cyano-2-(4-methyl-1,2,4-triazol-3-yl)phenyl]-6-cyclopropylpyridin-2-yl}-7-fluoro-1,3-benzoxazole-5-carboxylate]",1000 to 10000,200 to 1000,1000 to 10000,–,–
"Cn1cnnc1-c1cc(F)ccc1-c1cccc(-c2nc3cc(CO)cc(C(F)(F)F)c3o2)c1 [Example X-2, (2-(4′-Fluoro-2′-(4-methyl-4H-1,2,4-triazol-3-yl)-[1,1′-biphenyl]-3-yl)-7-(trifluoromethyl)benzo[d]oxazol-5-yl)methanol]",1000 to 10000,< 200,1000 to 10000,–,–
"COC1(CNC2(c3cc(F)c4oc(-c5cc(-c6ccc(F)cc6-c6nncn6C)cc(C6CC6)n5)nc4c3)CC2)CCC1 [AGO-2, 1-(2-{6-Cyclopropyl-4-[4-fluoro-2-(4-methyl-1,2,4-triazol-3-yl)phenyl]pyridin-2-yl}-7-fluoro-1,3-benzoxazol-5-yl)-N-[(1-methoxycyclobutyl)methyl]cyclopropan-1-amine]",200 to 1000,< 200,200 to 1000,–,–
"Cn1cnnc1-c1cc(F)ccc1-c1cccc(-c2nc3cc(CNCC4(O)CCC4)cc(C(F)(F)F)c3o2)c1 [Example Y-3, 1-((((2-(4′-Fluoro-2′-(4-methyl-4H-1,2,4-triazol-3-yl)-[1,1′-biphenyl]-3-yl)-7-(trifluoromethyl)benzo[d]oxazol-5-yl)methyl)amino)methyl)cyclobutan-1-ol]",1000 to 10000,< 200,200 to 1000,–,–
"Cn1cnnc1-c1cc(F)ccc1-c1cccc(-c2nc3cc(C(=O)NO)cc(C(F)(F)F)c3o2)c1 [DI-1, 2-(4′-Fluoro-2′-(4-methyl-4H-1,2,4-triazol-3-yl)-[1,1′-biphenyl]-3-yl)-N-hydroxy-7-(trifluoromethyl)benzo[d]oxazole-5-carboxamide]",1000 to 10000,< 200,10000 to 50000,–,–
"Cn1cnnc1-c1cc(F)ccc1-c1cccc(-c2nc3cc(CN4CC(C)(O)C4)cc(C(F)(F)F)c3[nH]2)c1 [BR-1, 1-((2-(4′-Fluoro-2′-(4-methyl-4H-1,2,4-triazol-3-yl)-[1,1′-biphenyl]-3-yl)-7-(trifluoromethyl)-1H-benzo[d]imidazol-5-yl)methyl)-3-methylazetidin-3-ol]",1000 to 10000,< 200,1000 to 10000,–,–

# The next lines start with results.
"IC50 [1, 4] [nM]",IC50 ([2]; read-out: TR-FRET hCbl-b IC50) [nM],EC50 [3] [nM],Compound,IC50 [1] [nM],IC50 [2] [nM]
200 to 1000,< 200,200 to 1000,"COC[C@@H](C)NCc1cc(C)c2oc(-c3cc(-c4ccc(F)cc4-c4nncn4C)cc(C4CC4)n3)nc2c1 [AGL-1, [(2-{6-Cyclopropyl-4-[4-fluoro-2-(4-methyl-1,2,4-triazol-3-yl)phenyl]pyridin-2-yl}-7-methyl-1,3-benzoxazol-5-yl)methyl][(2R)-1-methoxypropan-2-yl]amine]",–,–
200 to 1000,< 200,1000 to 10000,"Cn1cnnc1-c1cc(F)ccc1-c1cccc(-c2nc3cc(CO)cc(C4CC4)c3o2)c1 [ES-4, (7-Cyclopropyl-2-(4′-fluoro-2′-(4-methyl-4H-1,2,4-triazol-3-yl)-[1,1′-biphenyl]-3-yl)benzo[d]oxazol-5-yl)methanol]",–,–
200 to 1000,1000 to 10000,1000 to 10000,"Cn1cnnc1-c1cc(F)ccc1-c1cc(-c2nc3cc(CN4CC(F)C4)cc(F)c3o2)nc(C2CC2)c1 [AFP-3, 2-{6-Cyclopropyl-4-[4-fluoro-2-(4-methyl-1,2,4-triazol-3-yl)phenyl]pyridin-2-yl}-7-fluoro-5-[(3-fluoroazetidin-1-yl)methyl]-1,3-benzoxazole]",–,–
< 200,< 200,< 200,"Cc1cc(CN[C@@H]2CCC[C@@H]2O)c(F)c2nc(-c3cccc(-c4ccc(F)cc4-c4nncn4C)c3)oc12 [IQ-8, (1S,2R)-2-(((4-Fluoro-2-(4′-fluoro-2′-(4-methyl-4H-1,2,4-triazol-3-yl)-[1,1′-biphenyl]-3-yl)-7-methylbenzo[d]oxazol-5-yl)methyl)amino)cyclopentan-1-ol]",–,–
< 200,< 200,< 200,"Cn1cnnc1-c1cc(F)ccc1-c1cccc(-c2nc3cc(CNCC4(O)CC(F)(F)C4)cc(C(F)(F)F)c3o2)c1 [CQ-1, 3,3-Difluoro-1-((((2-(4′-fluoro-2′-(4-methyl-4H-1,2,4-triazol-3-yl)-[1,1′-biphenyl]-3-yl)-7-(trifluoromethyl)benzo[d]oxazol-5-yl)methyl)amino)methyl)cyclobutan-1-ol]",–,–
< 200,< 200,< 200,"C[C@H]1CCC[C@@H](NCc2cc(C(F)(F)F)c3oc(-c4cccc(-c5ccc(F)cc5-c5nncn5C)c4)nc3c2)C1 (racemic) [FV-2, rac-(1R,3S)—N-((2-(4′-fluoro-2′-(4-methyl-4H-1,2,4-triazol-3-yl)-[1,1′-biphenyl]-3-yl)-7-(trifluoromethyl)benzo[d]oxazol-5-yl)methyl)-3-methylcyclohexan-1-amine]",–,–
< 200,< 200,< 200,"Cn1cnnc1-c1cc(F)ccc1-c1cccc(-c2nc3cc(CNCC4(O)CCC4)cc(F)c3o2)c1 [IZ-1, 1-((((7-Fluoro-2-(4′-fluoro-2′-(4-methyl-4H-1,2,4-triazol-3-yl)-[1,1′-biphenyl]-3-yl)benzo[d]oxazol-5-yl)methyl)amino)methyl)cyclobutan-1-ol]",–,–
